# Experiments:
# [1] = target: T1, WRN helicase (aa N517-P1238) (Homo sapiens, UniProt Q14191); assay: WRN ATPase assay (DNA dependent ATP hydrolysis, ADP-Glo); type: biochemical; details: 3 hours pre-incubation, 300 micromolar ATP, FLAP26 DNA; geometric mean of at least 2
# T1 construct: The core helicase motif of the WRN protein (aa N517-P1238) was produced for this assay; His (N); ZZ (N); 3C protease cleavage site (N); made in house; host or cells: Sf21 insect cells (baculovirus; virus and BIICs made in SF9)
# T1 sequence (Q14191 517-1238): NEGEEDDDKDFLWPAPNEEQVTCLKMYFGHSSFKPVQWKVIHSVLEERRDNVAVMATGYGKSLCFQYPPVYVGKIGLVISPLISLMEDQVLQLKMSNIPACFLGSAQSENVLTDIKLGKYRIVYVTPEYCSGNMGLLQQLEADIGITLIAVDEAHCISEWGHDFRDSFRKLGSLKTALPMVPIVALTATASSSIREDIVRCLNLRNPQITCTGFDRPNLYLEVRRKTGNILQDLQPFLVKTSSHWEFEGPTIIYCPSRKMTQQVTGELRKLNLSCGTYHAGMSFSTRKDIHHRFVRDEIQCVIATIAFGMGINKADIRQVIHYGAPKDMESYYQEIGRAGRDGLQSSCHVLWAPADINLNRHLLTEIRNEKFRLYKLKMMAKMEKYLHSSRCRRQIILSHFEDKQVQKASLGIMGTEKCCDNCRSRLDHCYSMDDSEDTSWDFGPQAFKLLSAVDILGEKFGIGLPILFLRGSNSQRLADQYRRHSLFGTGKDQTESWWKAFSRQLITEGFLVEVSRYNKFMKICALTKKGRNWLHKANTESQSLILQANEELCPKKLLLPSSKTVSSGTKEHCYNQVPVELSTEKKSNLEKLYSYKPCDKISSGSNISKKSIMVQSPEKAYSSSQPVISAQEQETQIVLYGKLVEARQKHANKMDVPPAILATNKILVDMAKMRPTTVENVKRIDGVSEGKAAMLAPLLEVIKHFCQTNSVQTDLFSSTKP
# In short: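 DNA-dependent ATP hydrolysis detected as ADP by ADP-Glo luminescence, using 300 μM ATP, 0.2 nM FLAP26 substrate and 10 nM WRN aa N517-P1238 (Tris pH 7.5 buffer, 2 mM MgCl2, 50 mM NaCl). IC50s fitted from normalized duplicate half-log dilutions; reported as geometric means of at least 2 replicates.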
# SW48 cells = assay: Proliferation assay SW48 (CellTiterGlo); type: cell-based; details: Homo sapiens, SW48, 96 h, SW48 colon carcinoma cells, 96 hours, CellTiterGlo; geometric mean of at least 2; read-out: Proliferation Assay SW48 GI50
# From the text: The colon carcinoma cell lines SW48 (RRID: CVCL_1724), HCT 116 (RRID: CVCL_0291) and SNU-407 (RRID: CVCL_5058) were obtained from ATCC. The WRN-knockdown insensitive colon carcinoma cell line DLD-1 (RRID: CVCL_0248) was obtained from the Korean Cell Line Bank (KCLB), and used to generate a derivative in which the endogenous WRN gene copies were knocked out by CRISPR-mediated editing using standard CRISPR methods. The resulting cell line, DLD1-WRN-KO, was used to assess potential off-target compound effects.
# SW48, SNU-407 and DLD1-WRN-KO cells were cultured in growth medium composed of RPMI-1640 (Amimed Cat #1-41F22-1), 2 mM L-Glutamine (Amimed Cat #5-10K50), 10 mM HEPES (Gibco Cat #15630-056), 1 mM sodium pyruvate (Amimed Cat #5-60F00-H), 1× Penicillin-Streptomycin (Amimed Cat #4-01F00-H) and 10% fetal calf serum (Amimed Cat #2-01F30-G, Lot #LB11566P). HCT 116 cells were cultured in growth medium composed of McCoys 5A (Amimed catalog #1-18F01-1), 2 mM L-Glutamine (Amimed Cat #5-10K50), 1× Penicillin-Streptomycin (Amimed Cat #4-01F00-H) and 10% fetal calf serum (Amimed Cat #2-01F30-G, Lot #LB11566P). All cells were maintained at 37° C. in a humidified 5% CO2 incubator.
# Following filtration through a Steriflip-NY 20 μm filter (Millipore Cat #SCNY00020), trypsinized cells were seeded in 100 microliters growth medium at 2,000 (SW48) or 1,500 (SNU-407, DLD1-WRN-KO, HCT 116) cells/well into white, clear-bottom 96-well plates (Costar Cat #3903). Three replicate plates were prepared for each compound treatment condition. In addition, one plate (termed “day 0”) was prepared to quantify the number of viable cells at the time of compound addition. Following overnight incubation at 37° C. in a humidified 5% CO2 atmosphere, eight 3-fold serial dilutions of a given compound stock (obtained at a concentration of 10 mM in DMSO and stored at 4° C.) were dispensed directly into each of the triplicate assay plates using a HP 300D non-contact Digital Dispenser (TECAN). The final concentration of DMSO was normalized to 0.1% in all wells. 96 hours after compound addition, cellular ATP levels as a surrogate for cell viability was assessed following addition of 50 microliters CellTiterGlo (Promega Cat #G7573) reagent and luminescence quantification on a MPLEX multi-mode plate-reader (TECAN) following a 10 minute incubation at room temperature. The number of viable cells in the “day 0” plate were quantified identically on the day of compound addition.
# For data analysis, the assay background signal that was determined in wells containing medium, but no cells, was subtracted from all other data points prior to further calculations. The extent of growth inhibition and potential cell kill was assessed by comparing the ATP levels (measured using CellTiterGlo, Promega) in compound-treated cells with those present at the time of compound addition. To this end, the following conditional concept was programmatically applied in HELIOS, an in-house software applying a multi-step decision tree to arrive at optimal concentration response curve fits (Gubler et al, SLAS DOI: 10.1177/2472555217752140) to calculate % growth (% G) for each compound-treated well: % G=(T−V0)/V0))*100 when T<V0, and % G=(T−V0)/(V−V0)))*100 when T≥V0, where V0 is the viability level at time of compound addition, while V and T represent vehicle-control and compound-treated viability levels, respectively, at the end of the compound incubation. 100%, 0% and −100% signify absence of growth inhibition, growth stasis, and complete cell kill, respectively. Compound concentrations leading to half-maximal growth inhibition (GI50) and residual cell viability at the highest tested compound concentration (Data (cmax), expressed in percent) were routinely calculated. Data analysis can also be carried out using commercially available software designed to derive IC50 values using 4-parameter fits (e.g. GraphPad Prism, XL fit). […]
# DLD1-WRN-KO cells = assay: Proliferation assay DLD1-WRN-KO (CellTiterGlo, off-target effects); type: cell-based; details: 96 hours, geometric mean of at least 2
# In short: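 DLD1 cells with CRISPR knockout of WRN were exposed overnight-seeded to eight 3-fold compound dilutions (0.1% DMSO) for 96 h at 37 °C. Viability was read as ATP by CellTiterGlo luminescence against a day-0 plate, giving GI50 and residual viability at top concentration.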
IC50 [1],GI50 (SW48 cells),GI50 (DLD1-WRN-KO cells),Compound
60 nM,200 nM,> 10000 nM,"CCc1c(N2CCN(C(=O)c3c(O)ccc4ncccc34)CC2)c(=O)n2nc(C3=CCOCC3)nc2n1CC(=O)Nc1ccc(C(F)(F)F)cc1C [Example 18, 2-(2-(3,6-dihydro-2H-pyran-4-yl)-5-ethyl-6-(4-(6-hydroxyquinoline-5-carbonyl)piperazin-1-yl)-7-oxo-[1,2,4]triazolo[1,5-a]pyrimidin-4(7H)-yl)-N-(2-methyl-4-(trifluoromethyl)phenyl)acetamide]"
60 nM,> 10000 nM,> 10000 nM,"Cc1c(N2CCN(C(=O)c3ccnc(F)c3O)CC2)c(=O)n2nc(C3=CCOCC3)nc2n1CC(=O)Nc1ccc(C(F)(F)F)cc1 [Example 19, 2-(2-(3,6-dihydro-2H-pyran-4-yl)-6-(4-(2-fluoro-3-hydroxyisonicotinoyl)piperazin-1-yl)-5-methyl-7-oxo-[1,2,4]triazolo[1,5-a]pyrimidin-4(7H)-yl)-N-(4-(trifluoromethyl)phenyl)acetamide]"
90 nM,1000 nM,> 10000 nM,"Cc1nc2ccccc2c(C(=O)N2CCN(c3c(C)n(CC(=O)Nc4ccc(C(F)(F)F)cc4)c4nc(C5=CCOCC5)nn4c3=O)CC2)c1O [Example 20, 2-(2-(3,6-dihydro-2H-pyran-4-yl)-6-(4-(3-hydroxy-2-methylquinoline-4-carbonyl)piperazin-1-yl)-5-methyl-7-oxo-[1,2,4]triazolo[1,5-a]pyrimidin-4(7H)-yl)-N-(4-(trifluoromethyl)phenyl)acetamide]"
100 nM,> 10000 nM,> 10000 nM,"Cc1c(N2CCN(C(=O)c3cc(F)cnc3O)CC2)c(=O)n2nc(C3=CCOCC3)nc2n1CC(=O)Nc1ccc(C(F)(F)F)cc1 [Example 21, 2-(2-(3,6-dihydro-2H-pyran-4-yl)-6-(4-(5-fluoro-2-hydroxynicotinoyl)piperazin-1-yl)-5-methyl-7-oxo-[1,2,4]triazolo[1,5-a]pyrimidin-4(7H)-yl)-N-(4-(trifluoromethyl)phenyl)acetamide]"
100 nM,> 10000 nM,> 10000 nM,"Cc1c(N2CCN(C(=O)c3cncc(F)c3O)CC2)c(=O)n2nc(C3=CCOCC3)nc2n1CC(=O)Nc1ccc(C(F)(F)F)cc1 [Example 22, 2-(2-(3,6-dihydro-2H-pyran-4-yl)-6-(4-(5-fluoro-4-hydroxynicotinoyl)piperazin-1-yl)-5-methyl-7-oxo-[1,2,4]triazolo[1,5-a]pyrimidin-4(7H)-yl)-N-(4-(trifluoromethyl)phenyl)acetamide]"
200 nM,300 nM,> 10000 nM,"CCc1c(N2CCN(C(=O)c3ccnc(C)c3O)CC2)c(=O)n2nc(C3=CCCCO3)nc2n1CC(=O)Nc1ccc(C(F)(F)F)cc1Cl [Example 23, N-(2-chloro-4-(trifluoromethyl)phenyl)-2-(2-(3,4-dihydro-2H-pyran-6-yl)-5-ethyl-6-(4-(3-hydroxy-2-methylisonicotinoyl)piperazin-1-yl)-7-oxo-[1,2,4]triazolo[1,5-a]pyrimidin-4(7H)-yl)acetamide]"
200 nM,> 10000 nM,> 10000 nM,"Cc1c(N2CCN(C(=O)c3cnccc3O)CC2)c(=O)n2nc(C3=CCOCC3)nc2n1CC(=O)Nc1ccc(C(F)(F)F)cc1 [Example 24, 2-(2-(3,6-dihydro-2H-pyran-4-yl)-6-(4-(4-hydroxynicotinoyl)piperazin-1-yl)-5-methyl-7-oxo-[1,2,4]triazolo[1,5-a]pyrimidin-4(7H)-yl)-N-(4-(trifluoromethyl)phenyl)acetamide]"
200 nM,4000 nM,> 10000 nM,"Cc1cccc(O)c1C(=O)N1CCN(c2c(C)n(CC(=O)Nc3ccc(C(F)(F)F)cc3)c3nc(C4=CCOCC4)nn3c2=O)CC1 [Example 25, 2-(2-(3,6-dihydro-2H-pyran-4-yl)-6-(4-(2-hydroxy-6-methylbenzoyl)piperazin-1-yl)-5-methyl-7-oxo-[1,2,4]triazolo[1,5-a]pyrimidin-4(7H)-yl)-N-(4-(trifluoromethyl)phenyl)acetamide]"
300 nM,> 10000 nM,> 10000 nM,"Cc1cc(C(=O)N2CCN(c3c(C)n(CC(=O)Nc4ccc(C(F)(F)F)cc4)c4nc(C5=CCOCC5)nn4c3=O)CC2)c(O)cn1 [Example 26, 2-(2-(3,6-dihydro-2H-pyran-4-yl)-6-(4-(5-hydroxy-2-methylisonicotinoyl)piperazin-1-yl)-5-methyl-7-oxo-[1,2,4]triazolo[1,5-a]pyrimidin-4(7H)-yl)-N-(4-(trifluoromethyl)phenyl)acetamide]"
300 nM,> 10000 nM,> 10000 nM,"Cc1ccnc(O)c1C(=O)N1CCN(c2c(C)n(CC(=O)Nc3ccc(C(F)(F)F)cc3)c3nc(C4=CCOCC4)nn3c2=O)CC1 [Example 27, 2-(2-(3,6-dihydro-2H-pyran-4-yl)-6-(4-(2-hydroxy-4-methylnicotinoyl)piperazin-1-yl)-5-methyl-7-oxo-[1,2,4]triazolo[1,5-a]pyrimidin-4(7H)-yl)-N-(4-(trifluoromethyl)phenyl)acetamide]"
500 nM,> 10000 nM,> 10000 nM,"Cc1c(N2CCN(C(=O)c3c(F)ccnc3O)CC2)c(=O)n2nc(C3=CCOCC3)nc2n1CC(=O)Nc1ccc(C(F)(F)F)cc1 [Example 28, 2-(2-(3,6-dihydro-2H-pyran-4-yl)-6-(4-(4-fluoro-2-hydroxynicotinoyl)piperazin-1-yl)-5-methyl-7-oxo-[1,2,4]triazolo[1,5-a]pyrimidin-4(7H)-yl)-N-(4-(trifluoromethyl)phenyl)acetamide]"
100 nM,2000 nM,> 10000 nM,"Cc1c(N2CCN(C(=O)Nc3nccs3)CC2)c(=O)n2nc(C3=CCOCC3)nc2n1CC(=O)Nc1ccc(C(F)(F)F)cc1 [Example 29, 4-(2-(3,6-dihydro-2H-pyran-4-yl)-5-methyl-7-oxo-4-(2-oxo-2-((4-(trifluoromethyl)phenyl)amino)ethyl)-4,7-dihydro-[1,2,4]triazolo[1,5-a]pyrimidin-6-yl)-N-(thiazol-2-yl)piperazine-1-carboxamide]"
100 nM,2000 nM,> 10000 nM,"CCc1ccc(NC(=O)Cn2c(C)c(N3CCN(C(C)=O)CC3)c(=O)n3nc(C4=CCOCC4)nc23)cc1Cl [Example 30, 2-(6-(4-acetylpiperazin-1-yl)-2-(3,6-dihydro-2H-pyran-4-yl)-5-methyl-7-oxo-[1,2,4]triazolo[1,5-a]pyrimidin-4(7H)-yl)-N-(3-chloro-4-ethylphenyl)acetamide]"

# Source: patent US20260250289A1, “BICYCLIC HETEROCYCLES AND THEIR USE AS WRN INHIBITORS” (Novartis AG, priority 2022, published 2026)
